Values joined by “and” are separate entries in the source; they are usually repeats but may differ in a detail not shown here. Equal values may be shown once.
Assay: xn = mol fraction of the nth substance listed

O=C([O-])CC(O)(CC(=O)[O-])C(=O)[O-].[Li+].[Li+].[Li+] + O
viscosity [mPa·s], 101 kPa
Settings | 298.15 K | 308.15 K | 318.15 K
x1 = 0.004 | 1.118 | 0.9013 | 0.7487
x1 = 0.007 | 1.39 | 1.112 | 0.9146
x1 = 0.01 | 1.784 | 1.415 | 1.155

O=C[C@H](O)[C@@H](O)[C@@H](O)CO + O
viscosity, 101 kPa
Settings | 293.15 K | 298.15 K | 303.15 K | 308.15 K | 313.15 K | 318.15 K
x1 = 0.0031 | 1.059 mPa·s | – | 0.8425 mPa·s | 0.7555 mPa·s | 0.6857 mPa·s | 0.6277 mPa·s
x1 = 0.006 | 1.122 mPa·s and 1.122 mPa·s (2×) | 0.9982 mPa·s and 0.9982 mPa·s (2×) | 0.8927 mPa·s and 0.8927 mPa·s (2×) | 0.7947 mPa·s and 0.7947 mPa·s and 0.7947 mPa·s | 0.7187 mPa·s and 0.7187 mPa·s (2×) | 0.6585 mPa·s and 0.6585 mPa·s and 0.6585 mPa·s
x1 = 0.0063 | 1.122 mPa·s | 0.9982 mPa·s | 0.8927 mPa·s | 0.7947 mPa·s | 0.7187 mPa·s | 0.6585 mPa·s
x1 = 0.013 | 1.232 mPa·s and 1.232 mPa·s (2×) | – | 0.9886 mPa·s and 0.9886 mPa·s (2×) | 0.8863 mPa·s and 0.8863 mPa·s (2×) | 0.7996 mPa·s and 0.7996 mPa·s (2×) | 0.7229 mPa·s and 0.7229 mPa·s and 0.7229 mPa·s

O=S(=O)(O)CC(O)CN1CCOCC1 (centres undefined) + O
viscosity [mPa·s], 101.3 kPa
Settings | x1 = 0.00371 | x1 = 0.007201 | x1 = 0.009661 | x1 = 0.01079 | x1 = 0.01403 | x1 = 0.01784
298.15 K | 0.942 | 1.033 | 1.078 | 1.117 | 1.197 | 1.303
308.15 K | 0.761 | 0.833 | 0.871 | 0.901 | 0.966 | 1.051
318.15 K | 0.631 | 0.691 | 0.721 | 0.746 | 0.798 | 0.866
